The record followed here is ChEMBL document CHEMBL2202965 (Bioorg Med Chem Lett, 2012).

The source made the active and inactive calls. The rule behind the calls is not given here. Non-standard residues stand in square brackets, D forms with d. Residues, ends and D or L forms follow the SMILES beside them. ξ: configuration not given here. *: point of attachment. NH(2-(1-naphthyl)ethyl) = c1ccc2c(CCN*)cccc2c1; Phe(4-CONH2) = NC(=O)c1ccc(C[C@H](N)C(=O)O)cc1; Phe(4-COOH) = N[C@@H](Cc1ccc(C(=O)O)cc1)C(=O)O; Tryptamide = c1ccc2c(CCN*)c[nH]c2c1; Tic = O=C(O)[C@@H]1Cc2ccccc2CN1; X3 = c1ccc(-c2ccc(CCN*)cc2)cc1; X2 = c1cc(C2CCCCC2)ccc1CCN*; ξTic = O=C(O)C1Cc2ccccc2CN1; X1 = c1ccc2cc(CCN*)ccc2c1; NHDecyl = CCCCCCCCCCN*; NHHex = CCCCCCN* Where only a bound is given, the exact number is not on record here.

Broadly, the Ki is a measure of affinity in units of concentration, obtained from inhibition or displacement. A lower Ki goes with a stronger hold on the target. A word on the IC50: it is the point on the concentration scale where inhibition reaches its midpoint. A lower IC50 goes with inhibition by little substance.

The target of experiment [1] is Delta-type opioid receptor (Homo sapiens) (UniProt P41143). Briefly: Antagonist activity at human delta opioid receptor expressed in HEK293 cells by [35S]GTP binding assay. In kind it is functional, cell-based.
Chain of Delta-type opioid receptor (Homo sapiens) (P41143 whole entry): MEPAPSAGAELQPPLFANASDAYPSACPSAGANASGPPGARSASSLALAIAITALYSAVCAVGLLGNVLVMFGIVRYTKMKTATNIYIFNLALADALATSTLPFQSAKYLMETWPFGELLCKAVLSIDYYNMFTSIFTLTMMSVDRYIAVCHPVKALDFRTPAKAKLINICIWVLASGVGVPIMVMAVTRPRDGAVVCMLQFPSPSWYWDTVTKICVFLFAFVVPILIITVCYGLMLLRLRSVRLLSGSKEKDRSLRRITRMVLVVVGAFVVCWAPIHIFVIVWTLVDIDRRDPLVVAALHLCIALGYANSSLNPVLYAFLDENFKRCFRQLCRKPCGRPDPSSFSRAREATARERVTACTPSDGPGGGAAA
The target in experiment [2] is Kappa-type opioid receptor (Cavia porcellus, UniProt P41144). Briefly: Displacement of [3H]U69,593 from kappa opioid receptor in guinea pig brain membrane after 2 hrs. In kind it is cell membranes.
Chain of Kappa-type opioid receptor (P41144 whole entry): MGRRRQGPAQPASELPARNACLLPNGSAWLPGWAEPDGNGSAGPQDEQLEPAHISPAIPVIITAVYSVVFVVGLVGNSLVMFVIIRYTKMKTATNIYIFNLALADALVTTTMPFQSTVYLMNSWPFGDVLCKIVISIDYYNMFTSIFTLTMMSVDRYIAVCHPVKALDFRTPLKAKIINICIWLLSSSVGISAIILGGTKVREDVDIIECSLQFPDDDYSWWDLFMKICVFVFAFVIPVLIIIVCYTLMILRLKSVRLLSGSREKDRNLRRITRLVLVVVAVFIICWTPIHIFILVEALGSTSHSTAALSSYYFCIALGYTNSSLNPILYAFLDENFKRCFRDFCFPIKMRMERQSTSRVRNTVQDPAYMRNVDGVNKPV
Experiment [3] can be described thus: Agonist activity at delta opioid receptor in guinea pig ileum. As to conditions: Cavia porcellus.
Experiment [4] deals with Delta-type opioid receptor (Mus musculus) (UniProt P32300). The experiment can be described thus: Agonist activity at delta opioid receptor in mouse vas deferens relative to DPDPE. In kind it is functional, tissue-based.
Chain of Delta-type opioid receptor (Mus musculus) (P32300 whole entry): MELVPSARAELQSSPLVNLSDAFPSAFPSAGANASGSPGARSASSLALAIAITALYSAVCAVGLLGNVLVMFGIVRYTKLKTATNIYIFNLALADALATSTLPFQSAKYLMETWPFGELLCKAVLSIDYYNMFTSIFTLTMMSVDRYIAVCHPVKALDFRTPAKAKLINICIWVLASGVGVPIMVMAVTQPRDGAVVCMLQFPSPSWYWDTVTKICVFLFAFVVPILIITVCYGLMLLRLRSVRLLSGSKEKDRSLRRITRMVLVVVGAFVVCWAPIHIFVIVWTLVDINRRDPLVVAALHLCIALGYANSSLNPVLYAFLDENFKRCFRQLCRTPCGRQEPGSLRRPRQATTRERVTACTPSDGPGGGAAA
Experiment [5] deals with Delta-type opioid receptor (Rattus norvegicus) (UniProt P33533). Briefly: Displacement of [3H]DSLET from delta opioid receptor in rat brain membrane after 2 hrs relative to DPDPE. In kind it is cell membranes. For orientation: In a radioligand displacement assay an active substance lowers the binding of a labelled ligand.
Chain of Delta-type opioid receptor (Rattus norvegicus) (P33533 whole entry): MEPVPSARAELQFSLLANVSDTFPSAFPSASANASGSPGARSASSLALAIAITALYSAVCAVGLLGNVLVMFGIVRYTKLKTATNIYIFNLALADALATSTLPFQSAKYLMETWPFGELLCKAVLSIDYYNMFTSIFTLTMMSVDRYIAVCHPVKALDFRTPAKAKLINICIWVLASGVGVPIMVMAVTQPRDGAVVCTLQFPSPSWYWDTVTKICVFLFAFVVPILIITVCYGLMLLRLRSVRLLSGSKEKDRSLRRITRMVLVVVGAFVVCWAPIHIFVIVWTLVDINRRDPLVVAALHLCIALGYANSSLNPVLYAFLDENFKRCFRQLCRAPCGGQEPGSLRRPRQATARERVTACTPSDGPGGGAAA
The species entered for experiment [6] is Cavia porcellus. Briefly: Agonist activity at delta opioid receptor in guinea pig ileum at 10 uM. Type of experiment: functional, tissue-based.
For experiment [7], the species on record is Cavia porcellus. Briefly: (§1) Partial agonist activity at delta opioid receptor in guinea pig ileum. In kind it is functional.
Experiment [8] in a line: as §1. Type of experiment: functional. As to conditions: Cavia porcellus.
Experiment [9] deals with Delta-type opioid receptor (Homo sapiens) (UniProt P41143). The experiment can be described thus: Partial agonist activity at human delta opioid receptor expressed in HEK293 cells by [35S]GTP binding assay. In kind it is functional, cell-based.
Experiment [10] has the same target. Briefly: Agonist activity at human delta opioid receptor expressed in HEK293 cells by [35S]GTP binding assay relative to DPDPE. Type of experiment: functional, cell-based.

Turning to `N[C@@H](Cc1ccc(O)cc1)C(=O)N1Cc2ccccc2C[C@H]1C(=O)N[C@@H](Cc1ccccc1)C(=O)N[C@@H](Cc1ccccc1)C(=O)O` (H-Y[Tic]FF-OH), the result in [1] was Active. In experiment [2], the Ki is greater than 10 µM. This compound also registered an IC50 in [3] greater than 10 µM.
Take `NC(=O)c1ccc(C[C@H](N)C(=O)N2Cc3ccccc3C[C@H]2C(=O)N[C@@H](Cc2ccccc2)C(=O)N[C@@H](Cc2ccccc2)C(=O)O)cc1` (H-[Phe(4-CONH2)][Tic]FF-OH): the outcome in experiment [1] was Active. Further, the inhibition constant (Ki) in experiment [2] was greater than 10 µM.
`N[C@@H](Cc1ccc(C(=O)NCCc2cccc3ccccc23)cc1)C(=O)N1Cc2ccccc2C[C@H]1C(=O)N[C@@H](Cc1ccccc1)C(=O)N[C@@H](Cc1ccccc1)C(=O)O` (H-[Phe(4-COOH)](NH(2-(1-naphthyl)ethyl))[Tic]FF-OH): the fold change (FC) in experiment [4] is 2; in [5] it was 5. This compound also gave a Ki in experiment [2] greater than 10 µM. In addition, in the experiment filed under Cavia porcellus [6], the result was inactive.
In experiment [2], `CCCCCCCCCCNC(=O)c1ccc(C[C@H](N)C(=O)N2Cc3ccccc3C[C@H]2C(=O)N[C@@H](Cc2ccccc2)C(=O)N[C@@H](Cc2ccccc2)C(=O)O)cc1` (H-[Phe(4-COOH)](NHDecyl)[Tic]FF-OH) registered a Ki greater than 10 µM.
`CCCCCCNC(=O)c1ccc(C[C@H](N)C(=O)N2Cc3ccccc3C[C@H]2C(=O)N[C@@H](Cc2ccccc2)C(=O)N[C@@H](Cc2ccccc2)C(=O)O)cc1` (H-[Phe(4-COOH)](NHHex)[Tic]FF-OH) showed a Ki in [2] greater than 10 µM.
In the case of `N[C@@H](Cc1ccc(C(=O)NCCc2c[nH]c3ccccc23)cc1)C(=O)N1Cc2ccccc2C[C@H]1C(=O)N[C@@H](Cc1ccccc1)C(=O)N[C@@H](Cc1ccccc1)C(=O)O` (H-[Phe(4-COOH)](Tryptamide)[Tic]FF-OH), the result in the experiment filed under Cavia porcellus [7] was Active. The compound also had a Ki in experiment [2] greater than 10 µM.
For `N[C@@H](Cc1ccc(C(=O)NCCc2ccc3ccccc3c2)cc1)C(=O)N1Cc2ccccc2C[C@H]1C(=O)N[C@@H](Cc1ccccc1)C(=O)N[C@@H](Cc1ccccc1)C(=O)O` (H-[Phe(4-COOH)](X1)[Tic]FF-OH), the outcome in the experiment listed under Cavia porcellus [7] was Active. The results for the fold change (FC) in [4] and in experiment [5] were 2 and 5, respectively. Further, the Ki in experiment [2] was greater than 10 µM.
In experiment [2], `N[C@@H](Cc1ccc(C(=O)NCCc2ccc(C3CCCCC3)cc2)cc1)C(=O)N1Cc2ccccc2C[C@H]1C(=O)N[C@@H](Cc1ccccc1)C(=O)N[C@@H](Cc1ccccc1)C(=O)O` (H-[Phe(4-COOH)](X2)[Tic]FF-OH) [listing 1 of 2 here] yielded a Ki greater than 10 µM.
As for `N[C@@H](Cc1ccc(C(=O)NCCc2ccc(C3CCCCC3)cc2)cc1)C(=O)N1Cc2ccccc2C[C@H]1C(=O)N[C@@H](Cc1ccccc1)C(=O)N[C@@H](Cc1ccccc1)C(=O)O` (H-[Phe(4-COOH)](X2)[Tic]FF-OH) [listing 2 of 2 here], the IC35 in experiment [8] is 0.0234 µM.
The compound `N[C@@H](Cc1ccc(C(=O)NCCc2ccc(-c3ccccc3)cc2)cc1)C(=O)N1Cc2ccccc2CC1C(=O)N[C@@H](Cc1ccccc1)C(=O)N[C@@H](Cc1ccccc1)C(=O)O` (some centres not stated) (H-[Phe(4-COOH)](X3)[ξTic]FF-OH) had an ED50 in [9] of 0.000413 µM. Moreover, the Ratio in experiment [10] was 0.678. The Ki in experiment [2] was greater than 10 µM.
